Measured values from the OPERA property sets (Mansouri et al. 2018).

Settings: not given

Row | Compound | melting point [°C] | boiling point [°C] | log10 Henry constant (atm·m³/mol) | log10 vapour pressure (mmHg) | ready biodegradability | log10 Koc (L/kg) | log10 biodegradation half-life (days)
1 | O=S(Cc1ccccc1)Cc1ccccc1 | 134 |  |  |  |  |  | 
2 | O=C(O)CCl | 63 | 189 | -8.03 | -1.19 | readily biodegradable |  | 
3 | C1=CCCC=CCCC=CCC1 | -9.25 | 240 |  |  | not readily biodegradable |  | 
4 | Nc1cccc(Cl)c1Cl | 24 | 252 |  |  |  |  | 
5 | N#CCc1ccc2ccccc2c1 | 83 | 303 |  |  |  |  | 
6 | Cc1ncc[nH]1 | 144 | 267 |  |  | not readily biodegradable |  | 
7 | c1coc(CNc2[nH]cnc3ncnc2-3)c1 | 266 |  |  |  |  |  | 
8 | CN1[C@@H]2CCC[C@H]1CC2 |  | 166 |  |  |  |  | 
9 | CCC(C)C(C)C(C)CC (configuration not stated) |  | 162 |  |  |  |  | 
10 | CC(=O)Nc1ccccc1F | 78 |  |  |  |  |  | 
11 | O=c1ccoc2ccccc12 | 59 |  |  |  |  |  | 
12 | Oc1c(Br)cc(Br)c(Br)c1Br | 114 |  |  |  |  |  | 
13 | Cc1ccc(C(=O)c2ccc(C)cc2)cc1 | 96.5 | 334 |  |  |  |  | 
14 | CCCCCC(=O)Cc1cc(O)cc2c1C(=O)Oc1cc(O)c(C(=O)O)c(CCCCC)c1O2 | 205 |  |  |  |  |  | 
15 | CC[C@H](C(N)=O)[C@@H](C)CC | 114 |  |  |  |  |  | 
16 | Cc1cc2ccoc2cc1C |  | 221 |  |  |  |  | 
17 | CC(C)=CC=C(C)C | 14 | 134 |  |  |  |  | 
18 | COc1ccccc1N1CCNCC1 | 38.5 |  |  |  |  |  | 
19 | C[C@H](O)C(F)(F)F |  | 75.5 | -4.66 | 1.78 |  |  | 

Row | Compound | melting point [°C] | boiling point [°C] | log10 Henry constant (atm·m³/mol) | log10 vapour pressure (mmHg) | ready biodegradability | log10 Koc (L/kg) | log10 biodegradation half-life (days)
20 | O=C(O)Cc1cccc(Br)c1 | 101 |  |  |  |  |  | 
21 | C/C(=N/NC(=O)c1ccncc1)c1ccco1 | 202 |  |  |  |  |  | 
22 | CCCCC(=O)O[C@]1(C(=O)CO)[C@@H](C)C[C@H]2[C@@H]3CCC4=CC(=O)C=C[C@]4(C)[C@@]3(F)[C@@H](O)C[C@@]21C | 184 |  |  |  |  |  | 
23 | CC(C)CN(CCO)CC(C)C |  | 214 |  |  |  |  | 
24 | CCOP(=S)(NC(C)C)Oc1ccccc1C(=O)OC(C)C (configuration not stated) | -12 |  |  | -5.52 |  | 2.78 | 
25 | Clc1ccc(Cl)c(I)c1 | 22 | 253 |  |  |  |  | 
26 | O=[N+]([O-])c1ccc(Oc2ccccc2)c([N+](=O)[O-])c1 | 71 |  |  |  |  |  | 
27 | CCCCn1c2ccccc2c2ccccc21 | 58 |  |  |  |  |  | 
28 | Oc1nc(O)nc(O)n1 | 360 |  |  |  | readily biodegradable |  | 
29 | CN1CC[C@]23C(=O)C[C@H]4C(=CCO[C@H]5CC(=O)N(c6c(O)cccc62)[C@H]3[C@H]54)C1 | 282 |  |  |  |  |  | 
30 | CCSC(=O)COc1ccc(Cl)cc1C | 41.5 |  |  | -3.8 |  |  | 
31 | CC(=O)Oc1c(I)cc(I)cc1C(=O)Nc1ccc(Cl)cc1 | 216 |  |  |  |  |  | 
32 | C#CCC1CCCCC1 |  | 158 |  |  |  |  | 
33 | Cc1ccc(N)nc1 | 76.5 | 227 |  |  |  |  | 
34 | CCOC(O)C(Cl)(Cl)Cl (configuration not stated) | 56.5 | 116 |  |  |  |  | 
35 | COc1cccc(NC(=O)N(C)C)c1 |  |  |  |  |  | 1.72 | 
36 | OCc1ccc(O)cc1 | 124 | 252 |  |  |  |  | 
37 | CCc1ccccc1Br | -67.9 | 199 |  |  |  |  | 
38 | N#CCc1ccccc1Br | 1 |  |  |  |  |  | 

Row | Compound | melting point [°C] | boiling point [°C] | log10 Henry constant (atm·m³/mol) | log10 vapour pressure (mmHg) | ready biodegradability | log10 Koc (L/kg) | log10 biodegradation half-life (days)
39 | NC(=O)CI | 94.5 |  |  |  | not readily biodegradable |  | 
40 | COc1ccc(C[C@H]2c3cc(OC)c(OC)cc3CCN2C)cc1O | 176 |  |  |  |  |  | 
41 | NC1CCCCCCC1 | -48 | 190 |  |  |  |  | 
42 | C=CC | -185 | -48 | -0.708 | 3.94 |  |  | 
43 | COC(=O)c1cccc2ccccc12 | 59.5 |  |  |  |  |  | 
44 | OCC(O)COc1ccc(Cl)cc1 (configuration not stated) | 78 |  |  |  |  |  | 
45 | CCC(CC)c1ccncc1 | 126 | 217 |  |  |  |  | 
46 | CC(C)(C)NCC(O)COc1cccc2c1C[C@H](O)[C@H](O)C2 (some centres not stated) | 130 |  |  |  |  |  | 
47 | O=[N+]([O-])c1ccc2c(c1)NCC2 | 68 |  |  |  |  |  | 
48 | Cc1cccc(N2CC(CO)OC2=O)c1 (configuration not stated) | 76 |  |  |  |  |  | 
49 | CC(C)CCC(C)C | -91 | 109 |  | 1.48 |  |  | 1.4
50 | CCCCCCCCCCCCCc1ccccc1 | 10 | 346 |  | -4.9 |  |  | 
51 | FC(F)(F)C(F)(F)C(F)(F)C(F)(F)OC(F)(F)C(F)(F)C(F)(F)C(F)(F)F | -100 | 102 |  |  |  |  | 
52 | CCc1ccc2ccccc2c1 |  | 258 | -3.27 | -1.5 |  | 3.76 | 
53 | Cc1ccc(C(C)C)c(OC(=O)NCCC(C)C)c1 | 57 |  |  |  |  |  | 
54 | CCC(=O)OCCC(C)C |  | 160 |  |  |  |  | 
55 | O=C(O)c1cc(I)cc(I)c1O | 236 |  |  |  |  |  | 
56 | CCNc1nc(NCC)nc(SC)n1 |  |  |  |  |  | 2.3 | 

Same assay, conditions: fish

Row | Compound | log10 biotransformation half-life (days) | log10 BCF
57 | Brc1cc(Br)c(Oc2c(Br)cc(Br)c(Br)c2Br)cc1Br | 1.65 | 
58 | Brc1ccc(Oc2ccc(Br)cc2Br)cc1 | 1.25 | 5.83
59 | C1=CCCC=CCCC=CCC1 | 1.74 | 3.92
60 | CC(C)=CC=C(C)C | 0.49 | 2.32
61 | CCOP(=S)(NC(C)C)Oc1ccccc1C(=O)OC(C)C (configuration not stated) | -0.51 | 2.12
62 | Oc1nc(O)nc(O)n1 |  | -0.3
63 | Brc1cc(Br)c(-c2ccccc2)c(Br)c1 | 1.25 | 3.87
64 | Clc1c(Cl)c(Cl)c(Oc2c(Cl)c(Cl)c(Cl)c(Cl)c2Cl)c(Cl)c1Cl | 1.8 | 
